According to the supplement of paper PMC11451515:

How the values were obtained:
Settings in all cases: 48 h
NOMO1 [1] = assay: cell viability relative to DMSO control; higher = less cytotoxic
Outline: (§1)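 Cells were incubated for 48 h at 37°C before CellTiter-Glo One luminescence was read. The cells were NOMO1 or SEM (500 cells/well) or P12-Ichikawa (1000 cells/well) leukemia cells, adapted for at least four passages in each medium and seeded in 1536-well plates (5 μl). Dosing used library compounds in DMSO applied by pin over 11 threefold points, 47 μM to 0.79 nM. Viability is the per-plate percentage of DMSO wells, with cell-free wells as background.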

P12-Ichikawa [2] = assay: as above
Outline: as §1

SEM cells [3] = assay: as above
Outline: as §1

NOMO1 [4] = assay: AUC of viability dose-response curve (% viability x log10 dose units); higher = less sensitive
Outline: (§2)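 Seeding of medium-adapted leukemia cells was at 500 or 1000 cells/well in 1536-well plates, followed by 48 h at 37°C with library compounds in DMSO at 11 threefold doses from 47 μM to 0.79 nM. CellTiter-Glo One luminescence was normalised per plate to DMSO and cell-free wells and fitted as a four-parameter log-logistic function of log10 dose. Area under the curve was integrated by trapezoidal rule, with curves exceeding full viability scaled and curves failing quality control removed.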

P12-Ichikawa [5] = assay: as above
Outline: as §2

SEM cells [6] = assay: as above
Outline: as §2

Nc1ccc([S+](=O)([O-])Nc2ccnn2-c2ccccc2)cc1
cell viability [%]
Settings	NOMO1 [1]	P12-Ichikawa [2]	SEM cells [3]
HPLM + 10% dialyzed FBS, 0.000781 µM	85.1	105	76.6
HPLM + 10% dialyzed FBS, 0.00234 µM	97.6	103	89.9
HPLM + 10% dialyzed FBS, 0.00702 µM	104	103	80.9
HPLM + 10% dialyzed FBS, 0.0211 µM	101	109	97.8
HPLM + 10% dialyzed FBS, 0.0632 µM	108	111	87.8
HPLM + 10% dialyzed FBS, 0.19 µM	98.6	102	98.8
HPLM + 10% dialyzed FBS, 0.569 µM	100	105	109
HPLM + 10% dialyzed FBS, 1.71 µM	98.3	106	95.5
HPLM + 10% dialyzed FBS, 5.12 µM	107	105	94.8
HPLM + 10% dialyzed FBS, 15.4 µM	102	110	93.8
HPLM + 10% dialyzed FBS, 46.1 µM	113	107	93
RPMI 5 mM glucose + 10% FBS, 0.000781 µM	84.7	95.9	89.4
RPMI 5 mM glucose + 10% FBS, 0.00234 µM	98.5	101	92.8
RPMI 5 mM glucose + 10% FBS, 0.00702 µM	97.8	98.3	105
RPMI 5 mM glucose + 10% FBS, 0.0211 µM	105	96	102
RPMI 5 mM glucose + 10% FBS, 0.0632 µM	98.9	108	88.8
RPMI 5 mM glucose + 10% FBS, 0.19 µM	97	115	98.2
RPMI 5 mM glucose + 10% FBS, 0.569 µM	99.4	108	114
RPMI 5 mM glucose + 10% FBS, 1.71 µM	95.6	106	102
RPMI 5 mM glucose + 10% FBS, 5.12 µM	102	100	89
RPMI 5 mM glucose + 10% FBS, 15.4 µM	94.1	109	96.2
RPMI 5 mM glucose + 10% FBS, 46.1 µM	96.8	107	116
RPMI 5 mM glucose + 10% dialyzed FBS, 0.000781 µM	81.4	86.1	95.1
RPMI 5 mM glucose + 10% dialyzed FBS, 0.00234 µM	90.1	98.7	89.5
RPMI 5 mM glucose + 10% dialyzed FBS, 0.00702 µM	91.8	97.7	104
RPMI 5 mM glucose + 10% dialyzed FBS, 0.0211 µM	95.1	92.9	86.2
RPMI 5 mM glucose + 10% dialyzed FBS, 0.0632 µM	100	105	97.5
RPMI 5 mM glucose + 10% dialyzed FBS, 0.19 µM	104	99	88
RPMI 5 mM glucose + 10% dialyzed FBS, 0.569 µM	94.7	98.2	107
RPMI 5 mM glucose + 10% dialyzed FBS, 1.71 µM	93.8	112	94.8
RPMI 5 mM glucose + 10% dialyzed FBS, 5.12 µM	90.1	103	115
RPMI 5 mM glucose + 10% dialyzed FBS, 15.4 µM	92.6	106	106
RPMI 5 mM glucose + 10% dialyzed FBS, 46.1 µM	101	96.7	104

AUC of viability dose-response curve
Settings	NOMO1 [4]	P12-Ichikawa [5]	SEM cells [6]
HPLM + 10% dialyzed FBS	446	470	444
RPMI 5 mM glucose + 10% FBS	467	455	452
RPMI 5 mM glucose + 10% dialyzed FBS	451	464	440

COc1ccc(C(=O)c2c(C)n(CCN3CCOCC3)c3cc(I)ccc23)cc1
cell viability [%]
Settings	NOMO1 [1]	P12-Ichikawa [2]	SEM cells [3]
HPLM + 10% dialyzed FBS, 0.000781 µM	–	106	85.3
HPLM + 10% dialyzed FBS, 0.00234 µM	–	113	102
HPLM + 10% dialyzed FBS, 0.00702 µM	–	113	111
HPLM + 10% dialyzed FBS, 0.0211 µM	–	124	109
HPLM + 10% dialyzed FBS, 0.0632 µM	–	124	105
HPLM + 10% dialyzed FBS, 0.19 µM	–	121	110
HPLM + 10% dialyzed FBS, 0.569 µM	–	119	103
HPLM + 10% dialyzed FBS, 1.71 µM	–	120	93.8
HPLM + 10% dialyzed FBS, 5.12 µM	–	39.7	98.5
HPLM + 10% dialyzed FBS, 15.4 µM	–	13.7	91.7
HPLM + 10% dialyzed FBS, 46.1 µM	–	9.27	66.4
RPMI 5 mM glucose + 10% FBS, 0.000781 µM	105	115	88
RPMI 5 mM glucose + 10% FBS, 0.00234 µM	112	121	108
RPMI 5 mM glucose + 10% FBS, 0.00702 µM	126	128	104
RPMI 5 mM glucose + 10% FBS, 0.0211 µM	133	122	93.6
RPMI 5 mM glucose + 10% FBS, 0.0632 µM	138	129	106
RPMI 5 mM glucose + 10% FBS, 0.19 µM	122	124	111
RPMI 5 mM glucose + 10% FBS, 0.569 µM	119	133	107
RPMI 5 mM glucose + 10% FBS, 1.71 µM	29.9	130	111
RPMI 5 mM glucose + 10% FBS, 5.12 µM	27.1	41.6	96.4
RPMI 5 mM glucose + 10% FBS, 15.4 µM	24.9	14.3	95.1
RPMI 5 mM glucose + 10% FBS, 46.1 µM	21.1	12.3	52
RPMI 5 mM glucose + 10% dialyzed FBS, 0.000781 µM	100	102	102
RPMI 5 mM glucose + 10% dialyzed FBS, 0.00234 µM	115	110	93.5
RPMI 5 mM glucose + 10% dialyzed FBS, 0.00702 µM	124	130	117
RPMI 5 mM glucose + 10% dialyzed FBS, 0.0211 µM	116	118	115
RPMI 5 mM glucose + 10% dialyzed FBS, 0.0632 µM	130	129	115
RPMI 5 mM glucose + 10% dialyzed FBS, 0.19 µM	126	134	123
RPMI 5 mM glucose + 10% dialyzed FBS, 0.569 µM	137	131	132
RPMI 5 mM glucose + 10% dialyzed FBS, 1.71 µM	52.3	126	129
RPMI 5 mM glucose + 10% dialyzed FBS, 5.12 µM	29.1	94.2	107
RPMI 5 mM glucose + 10% dialyzed FBS, 15.4 µM	27.4	32.8	99.1
RPMI 5 mM glucose + 10% dialyzed FBS, 46.1 µM	23.3	14.9	60.3

AUC of viability dose-response curve
Settings	NOMO1 [4]	P12-Ichikawa [5]	SEM cells [6]
HPLM + 10% dialyzed FBS	354	381	461
RPMI 5 mM glucose + 10% FBS	344	381	461
RPMI 5 mM glucose + 10% dialyzed FBS	357	409	458

O=C(O)CCNC(=O)c1ccc(/N=N/c2ccc(O)c(C(=O)O)c2)cc1
cell viability [%]
Settings	NOMO1 [1]	P12-Ichikawa [2]	SEM cells [3]
HPLM + 10% dialyzed FBS, 0.000781 µM	–	115	116
HPLM + 10% dialyzed FBS, 0.00234 µM	–	116	108
HPLM + 10% dialyzed FBS, 0.00702 µM	–	114	118
HPLM + 10% dialyzed FBS, 0.0211 µM	–	114	109
HPLM + 10% dialyzed FBS, 0.0632 µM	–	110	106
HPLM + 10% dialyzed FBS, 0.19 µM	–	120	105
HPLM + 10% dialyzed FBS, 0.569 µM	–	109	98.9
HPLM + 10% dialyzed FBS, 1.71 µM	–	115	105
HPLM + 10% dialyzed FBS, 5.12 µM	–	112	103
HPLM + 10% dialyzed FBS, 15.4 µM	–	110	101
HPLM + 10% dialyzed FBS, 46.1 µM	–	113	96.7
RPMI 5 mM glucose + 10% FBS, 0.000781 µM	106	–	–
RPMI 5 mM glucose + 10% FBS, 0.00234 µM	125	–	–
RPMI 5 mM glucose + 10% FBS, 0.00702 µM	113	–	–
RPMI 5 mM glucose + 10% FBS, 0.0211 µM	122	–	–
RPMI 5 mM glucose + 10% FBS, 0.0632 µM	110	–	–
RPMI 5 mM glucose + 10% FBS, 0.19 µM	110	–	–
RPMI 5 mM glucose + 10% FBS, 0.569 µM	117	–	–
RPMI 5 mM glucose + 10% FBS, 1.71 µM	106	–	–
RPMI 5 mM glucose + 10% FBS, 5.12 µM	117	–	–
RPMI 5 mM glucose + 10% FBS, 15.4 µM	116	–	–
RPMI 5 mM glucose + 10% FBS, 46.1 µM	76.7	–	–

AUC of viability dose-response curve
Settings	NOMO1 [4]	P12-Ichikawa [5]	SEM cells [6]
HPLM + 10% dialyzed FBS	465	469	443
RPMI 5 mM glucose + 10% FBS	469	447	454
RPMI 5 mM glucose + 10% dialyzed FBS	468	443	464
